Measurements taken from patent US20080090849A1, “NOVEL PURINE DERIVATIVES, PREPARATION METHOD AND USE AS MEDICINES” (AVENTIS PHARMA S.A., priority 2000, published 2008).
In brackets after ≈: the same amount, converted by molar mass. Counter-ions that a name gives are not always drawn. Like-named read-outs stand apart in the source and are kept apart here.

Legend:
[1] = test system: fungus; experiment: Minimum inhibitory concentration (MIC), NCCLS M27-A broth dilution antifungal susceptibility test; type: cell-based; settings: RPMI 1640 medium, 37° C., visual reading, inhibition of at least 80% of growth; test strain not named
From the text: A constant number of cells of a given strain are exposed to increasing concentrations of an antifungal, under conditions taken from NCCLS (National Committee for Clinical Laboratory Standards, 1997 [reference method for broth dilution antifungal susceptibility testing of yeasts]. Approved Standard M27-A. NCCLS, Villanova, Pa.); the minimum concentration with which a visible reduction in the cloudiness from cell growth was observed (at least 80% relative to a control with no product) is the minimum inhibitory concentration (MIC) of the antifungal for the test strain.
Supplement the L-glutamine-free RPMI 1640 medium (liquid) with L-glutamine (0.3 g/l or 10.5 ml of a solution at 200 mM) and buffer with 34.54 g/l (0.165 M) of M morpholinepropanesulfonic acid (MOPS). Sterilize the medium by filtration. Distribute 100 μl of RPMI medium into each well of a 96-well microplate. Distribute the appropriate volume of the antifungal solution in the first column of the microplate and adjust with medium to 200 μl. Carry out a 2-fold serial dilution in order to establish a range of 11 concentrations in each lane of the microplate. The 12th well of each row will serve as a control for growth. Prepare the cellular suspension from a (liquid or agar) culture or from a frozen vial, dilute it in RPMI medium in order to obtain a cellular suspension at 5×10^3-2×10^4 cells/ml. Distribute 100 μl of the cellular suspension into the microplate. The MIC for all the Candida species was read after 24-48 h, for Cryptococcus and Aspergillus after 48-72 h of incubation at 37° C. in a normal atmosphere. The MIC is read by visual readings by determining the well which contains the lowest dose of antifungal which causes an inhibition of at least 80% of the growth of the fungus.

[2] = biological target: CaCiv1 (Candida albicans, UniProt A0A1D8PH53); experiment: Test of inhibition of the activity of CIV-CDK (CIV1); type: biochemical
Experimental: (Details of the Excipient: Lactose, Talc, Starch, Magnesium Stearate.) Pharmacological Part: 1) Test of Inhibition of the Activity of CIV-CDK (CIV1) a) PREPARATION of the Reagents […]
967 μl Buffer [50 mM Tris-HCl−0.1 M NaCl−pH 7.5]
−0.1% BSA+30 μl Cdk2 (1 mg/ml)
(2)-3× Inhibitor Cocktail
Prepare a 3× range of inhibitor in 3% of DMSO-Buffer
[50 mM Tris-HCl−0.1 M NaCl−pH 7.5]−0.1% BSA
ATP−pH 7.5+1 tablet of protease inhibitors (Complete EDTA Free™) per 5 ml of Buffer b) Carrying Out of the Test
1)—mix 30 μl of the 3× enzyme cocktail (1) with 30 μl of the 3× inhibitor cocktail (2) 2)—add 30 μl of the 3×ATP cocktail (3) (start of the reaction)
3)—incubate for 30 min at room temperature (20 to 25° C.)
4)—stop the reaction by adding 250 μl of Buffer [50 mM Tris-HCl−0.1 M NaCl−pH 7.5]−0.1% BSA−25 mM EDTA 5)—distribute 100 μl into a plate coated with antibodies directed against the reaction substrate 6)—incubate for 60 min at room temperature, stirring gently and then wash 3 times with 300 μl Buffer [50 mM Tris-HCl−0.1 M NaCl−pH 7.5]−0.05% Tween20
9)—Place the plate to dry for 30 min at 37° C.
10)—Place for counting in a scintillation counter c) Results Obtained, Expressed as IC50 Expressed in Micromolar

[3] = CaCiv1 with Cdk2, [33P]ATP, 30 min at room temperature, scintillation counting, read-out: IC50

Chain of CaCiv1 (A0A1D8PH53 entry or part of it): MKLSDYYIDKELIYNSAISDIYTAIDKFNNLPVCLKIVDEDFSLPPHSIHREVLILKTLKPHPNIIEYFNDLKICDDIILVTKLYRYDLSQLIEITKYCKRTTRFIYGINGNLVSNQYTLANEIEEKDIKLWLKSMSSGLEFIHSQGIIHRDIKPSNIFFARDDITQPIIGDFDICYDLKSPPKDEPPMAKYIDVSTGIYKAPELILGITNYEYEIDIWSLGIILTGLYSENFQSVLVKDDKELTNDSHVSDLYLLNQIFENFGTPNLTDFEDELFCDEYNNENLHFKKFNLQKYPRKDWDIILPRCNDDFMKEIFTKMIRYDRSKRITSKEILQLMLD

IC50 [2, 3] [nM] | Compound | MIC [1] [µg/mL] | IC50 [2] [nM]
 | N[C@H]1CC[C@H](Nc2nc(Nc3ccc(Cl)cc3)c3nc[nH]c3n2)CC1 [Example 15, Trans-N2-(4-aminocyclohexyl)-N6-(4-chlorophenyl)-9H-purine-2,6-diamine] | 100 (≈ 279 µM) | 
2000 | CCOC(=O)c1cccc(Nc2nc(N[C@H]3CC[C@H](N)CC3)nc3[nH]cnc23)c1 [Example 14, Ethyl trans-3-[[2-[(4-aminocyclohexyl)amino]-9H-purin-6-yl]amino]benzoate] |  | 
 | CCOC(=O)c1ccc(Nc2[nH]c(N[C@H]3CC[C@H](N)CC3)nc3ncnc2-3)cc1 [Example 1, Ethyl trans-4-[[2-[(4-aminocyclohexyl)amino]-1H-purin-6-yl]amino]benzoate dihydrochloride] |  | 500
4300 | CCN(CC)CCOC(=O)c1ccc(Nc2nc(N[C@H]3CC[C@H](N)CC3)nc3[nH]cnc23)cc1 [Example 18, 2-(diethylamino)ethyl trans-4-[[2-[(4-aminocyclohexyl)amino]-9H-purin-6-yl]amino]benzoate] |  | 
2500 | N[C@H]1CC[C@H](Nc2nc(Nc3ccccc3)c3nc[nH]c3n2)CC1 [Example 11, Trans-N2-(4-aminocyclohexyl)-N6-[4-phenyl]-1H-purine-2,6-diamine dihydrochloride] |  | 
3800 | N[C@H]1CC[C@H](Nc2nc(Nc3ccc(C(=O)Nc4ccccc4)cc3)c3nc[nH]c3n2)CC1 [Example 19, Trans-4-[[2-[(4-aminocyclohexyl)amino]-9H-purin-6-yl]amino]-N-phenylbenzamide] |  | 

Compound | IC50 [2, 3] [nM] | MIC [1] [µg/mL] | IC50 [2] [nM]
N[C@H]1CC[C@H](Nc2nc(Nc3ccc(Cl)c(Cl)c3)c3nc[nH]c3n2)CC1 [Example 16, trans-N2-(4-aminocyclohexyl)-N6-(3,4-dichlorophenyl)-9H-purine-2,6-diamine] | 2900 | 25 (≈ 63.7 µM) | 
CCCCOC(=O)c1ccc(Nc2nc(N[C@H]3CC[C@H](N)CC3)nc3[nH]cnc23)cc1 [Example 17, Butyl trans-4-[[2-[(4-aminocyclohexyl)amino]-9H-purin-6-yl]amino]benzoate] | 5600 | 12.5 (≈ 29.5 µM) | 
